The test system of data set [1] is Mycobacterium tuberculosis H37Rv (susceptible; ATCC: 25177). In words: Resazurin Microplate Assay (REMA), anti-tubercular activity, susceptible strain. The format is cell-based. The following applies: 192 h, read-out: MIC (μg/mL) Susceptible (H37Rv), H37Rv, ATCC: 25177, 8 days incubation at 37° C. For orientation: Alamar Blue is a resazurin reagent that responds to reducing activity.

In general, melting point refers to the temperature, or range, at which the solid turns liquid.

Regarding `COc1ccc(C(=O)C[n+]2cc(C)cc(C)c2)cc1.[Br-]`, the melting point is 108 °C.

The compound `Cc1cc(C)c[n+](CC(=O)c2ccc(Cl)cc2)c1.[Br-]` showed a melting point of 125 °C. `Cc1cc(C)c[n+](CC(=O)c2ccc(Br)cc2)c1.[Br-]` came in with a melting point of 210 °C. In turn, `Cc1cc(C)c[n+](CC(=O)c2ccc(F)cc2)c1.[Br-]` [Compound 3d, 1-(2-(4-Fluorophenyl)-2-oxoethyl)-3,5-dimethylpyridin-1-ium bromide] showed a melting point of 123 °C. In data set [1], the MIC was approximately 8 µg/mL.
